The results in this text go back to patent publication US9499550B2 (BRISTOL-MYERS SQUIBB COMPANY, priority 2012, dated 2016).

Assay [1] concerns HCV genotype 1a (H77 strain) replicon in HUH-7 cells. Put plainly: HCV replicon luciferase reporter assay, genotype 1a. In kind it is cell-based. The conditions noted are these: Hepatitis C virus, Huh-7, 72 h, HCV genotype 1a replicon luciferase assay, 3 days incubation, range class, read-out: LE_1a (EC50, range). In a few lines:
(§1)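 Replicon inhibition for both genotypes was measured as Renilla luciferase signal (EnduRen, 7.5 μM final, 2 h) after 3-day, 37° C exposure of replicon-bearing HUH-7 cells in 4% FCS DMEM, 0.5% DMSO. The 1b construct carries S1179I; the 1a H77 construct carries P1496L and S2204I. Twenty-point, 3-fold dilutions were fitted four-parametrically for EC50, and CC50 was taken from multiplexed Cell Titer-Blue.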
In general terms: A replicon is a self-replicating genome or part of one, used to study replication in cells.

Assay [2] deals with HCV genotype 1b (Con1) replicon in HUH-7 cells. Put plainly: HCV replicon luciferase reporter assay, genotype 1b. Type of assay: cell-based. Particulars: Hepatitis C virus, Huh-7, 72 h, HCV genotype 1b replicon luciferase assay, 3 days incubation, range class, read-out: LE_1b (EC50, range). In outline:
as §1

Consider `C[C@@H]1CC/C=C\[C@@H]2C[C@@]2(C(=O)NS(=O)(=O)C2CC2)NC(=O)[C@@H]2C[C@@H](Oc3nc(OCC(F)F)cc4c(Cl)cccc34)CN2C(=O)[C@@H](NC(=O)O[C@H](C)C(F)(F)F)[C@H](C)C1` [Compound 1100, (R)-1,1,1-trifluoropropan-2-yl ((2R,6S,7R,9R,13aS,14aR,16aS,Z)-2-((5-chloro-3-(2,2-difluoroethoxyl)isoquinolin-1-yl)oxy)-14a-((cyclopropylsulfonyl)carbamoyl)-7,9-dimethyl-5,16-dioxo-1,2,3,5,6,7,8,9,10,11,13a,14,14a,15,16,16a-hexadecahydrocyclopropa[e]pyrrolo[1,2-a][1,4]diazacyclopentadecin-6-yl)carbamate], for which the concentration for a half-maximal effect (EC50) in assay [1] and in assay [2] was less than 5.46 nM in each case.

On to `CC(C)Oc1cc2c(Cl)cccc2c(O[C@@H]2C[C@H]3C(=O)N[C@]4(C(=O)NS(=O)(=O)C5(C)CC5)C[C@H]4/C=C\CC[C@H](C)C[C@@H](C)[C@H](NC(=O)OC(C)(C)C(F)(F)F)C(=O)N3C2)n1` [Compound 1101, 1,1,1-trifluoro-2-methylpropan-2-yl((2R,6S,7R,9S,13aS,14aR,16aS,Z)-2-((5-chloro-3-isopropoxyisoquinolin-1-yl)oxy)-7,9-dimethyl-14a-(((1-methylcyclopropyl)sulfonyl)carbamoyl)-5,16-dioxo-1,2,3,5,6,7,8,9,10,11,13a,14,14a,15,16,16a-hexadecahydrocyclopropa[e]pyrrolo[1,2-a][1,4]diazacyclopentadecin-6-yl)carbamate], for which the EC50 in assay [1] and in assay [2] was 4.82 to 103 nM each time.

Take `CC(C)Oc1cc2c(Cl)cccc2c(O[C@@H]2C[C@H]3C(=O)N[C@]4(C(=O)NS(=O)(=O)C5(C)CC5)C[C@H]4/C=C\CC[C@@H](C)C[C@@H](C)[C@H](NC(=O)OC(C)(C)C(F)(F)F)C(=O)N3C2)n1` [Compound 1102, 1,1,1-trifluoro-2-methylpropan-2-yl((2R,6S,7R,9R,13aS,14aR,16aS,Z)-2-((5-chloro-3-isopropoxyisoquinolin-1-yl)oxy)-7,9-dimethyl-14a-(((1-methylcyclopropyl)sulfonyl)carbamoyl)-5,16-dioxo-1,2,3,5,6,7,8,9,10,11,13a,14,14a,15,16,16a-hexadecahydrocyclopropa[e]pyrrolo[1,2-a][1,4]diazacyclopentadecin-6-yl)carbamate]: the EC50 in assay [1] and in assay [2] was less than 5.46 nM each time.

Turning to `CC(C)Oc1cc2c(Cl)cccc2c(O[C@@H]2C[C@H]3C(=O)N[C@]4(C(=O)NS(=O)(=O)C5(C)CC5)C[C@H]4/C=C\CC[C@H](C)C[C@@H](C)[C@H](NC(=O)OC(C)(C)C(C)(F)F)C(=O)N3C2)n1` [Compound 1103, 3,3-difluoro-2-methylbutan-2-yl((2R,6S,7R,9S,13aS,14aR,16aS,Z)-2-((5-chloro-3-isopropoxyisoquinolin-1-yl)oxy)-7,9-dimethyl-14a-(((1-methylcyclopropyl)sulfonyl)carbamoyl)-5,16-dioxo-1,2,3,5,6,7,8,9,10,11,13a,14,14a,15,16,16a-hexadecahydrocyclopropa[e]pyrrolo[1,2-a][1,4]diazacyclopentadecin-6-yl)carbamate], the EC50 (usually the concentration giving half of the maximal effect) in assay [1] is 4.82 to 103 nM; in assay [2], less than 5.46 nM.

With `CC(C)Oc1cc2c(Cl)cccc2c(O[C@@H]2C[C@H]3C(=O)N[C@]4(C(=O)NS(=O)(=O)C5(C)CC5)C[C@H]4/C=C\CC[C@@H](C)C[C@@H](C)[C@H](NC(=O)OC(C)(C)C(C)(F)F)C(=O)N3C2)n1` [Compound 1104, 3,3-difluoro-2-methylbutan-2-yl((2R,6S,7R,9R,13aS,14aR,16aS,Z)-2-((5-chloro-3-isopropoxyisoquinolin-1-yl)oxy)-7,9-dimethyl-14a-(((1-methylcyclopropyl)sulfonyl)carbamoyl)-5,16-dioxo-1,2,3,5,6,7,8,9,10,11,13a,14,14a,15,16,16a-hexadecahydrocyclopropa[e]pyrrolo[1,2-a][1,4]diazacyclopentadecin-6-yl)carbamate], the EC50 in assay [1] and in assay [2] was less than 5.46 nM each time.

For `CC(C)Oc1cc2c(Cl)cccc2c(O[C@@H]2C[C@H]3C(=O)N[C@]4(C(=O)NS(=O)(=O)C5CC5)C[C@H]4/C=C\CC[C@H](C)C[C@@H](C)[C@H](NC(=O)OC(C)(C)C(C)(F)F)C(=O)N3C2)n1` [Compound 1105, 3,3-difluoro-2-methylbutan-2-yl((2R,6S,7R,9S,13aS,14aR,16aS,Z)-2-((5-chloro-3-isopropoxyisoquinolin-1-yl)oxy)-14a-((cyclopropylsulfonyl)carbamoyl)-7,9-dimethyl-5,16-dioxo-1,2,3,5,6,7,8,9,10,11,13a,14,14a,15,16,16a-hexadecahydrocyclopropa[e]pyrrolo[1,2-a][1,4]diazacyclopentadecin-6-yl)carbamate], the EC50 in assay [1] and in assay [2] was less than 5.46 nM throughout.

Take `CC(C)Oc1cc2c(Cl)cccc2c(O[C@@H]2C[C@H]3C(=O)N[C@]4(C(=O)NS(=O)(=O)C5CC5)C[C@H]4/C=C\CC[C@@H](C)C[C@@H](C)[C@H](NC(=O)OC(C)(C)C(C)(F)F)C(=O)N3C2)n1` [Compound 1106, 3,3-difluoro-2-methylbutan-2-yl((2R,6S,7R,9R,13aS,14aR,16aS,Z)-2-((5-chloro-3-isopropoxyisoquinolin-1-yl)oxy)-14a-((cyclopropylsulfonyl)carbamoyl)-7,9-dimethyl-5,16-dioxo-1,2,3,5,6,7,8,9,10,11,13a,14,14a,15,16,16a-hexadecahydrocyclopropa[e]pyrrolo[1,2-a][1,4]diazacyclopentadecin-6-yl)carbamate]: the EC50 in assay [1] and in assay [2] was less than 5.46 nM in each case.

On to `C[C@H]1CC/C=C\[C@@H]2C[C@@]2(C(=O)NS(=O)(=O)C2(C)CC2)NC(=O)[C@@H]2C[C@@H](Oc3nc(OCC(F)F)cc4c(Cl)cccc34)CN2C(=O)[C@@H](NC(=O)O[C@H](C)C(F)(F)F)[C@H](C)C1` [Compound 1107, (R)-1,1,1-trifluoropropan-2-yl ((2R,6S,7R,9S,13aS,14aR,16aS,Z)-2-((5-chloro-3-(2,2-difluoroethoxyl)isoquinolin-1-yl)oxy)-7,9-dimethyl-14a-(((1-methylcyclopropyl)sulfonyl)carbamoyl)-5,16-dioxo-1,2,3,5,6,7,8,9,10,11,13a,14,14a,15,16,16a-hexadecahydrocyclopropa[e]pyrrolo[1,2-a][1,4]diazacyclopentadecin-6-yl)carbamate], for which the EC50 in assay [1] is 4.82 to 103 nM; in assay [2], less than 5.46 nM.

Regarding `C[C@@H]1CC/C=C\[C@@H]2C[C@@]2(C(=O)NS(=O)(=O)C2(C)CC2)NC(=O)[C@@H]2C[C@@H](Oc3nc(OCC(F)F)cc4c(Cl)cccc34)CN2C(=O)[C@@H](NC(=O)O[C@H](C)C(F)(F)F)[C@H](C)C1` [Compound 1108, (R)-1,1,1-trifluoropropan-2-yl ((2R,6S,7R,9R,13aS,14aR,16aS,Z)-2-((5-chloro-3-(2,2-difluoroethoxyl)isoquinolin-1-yl)oxy)-7,9-dimethyl-14a-(((1-methylcyclopropyl)sulfonyl)carbamoyl)-5,16-dioxo-1,2,3,5,6,7,8,9,10,11,13a,14,14a,15,16,16a-hexadecahydrocyclopropa[e]pyrrolo[1,2-a][1,4]diazacyclopentadecin-6-yl)carbamate], the EC50 in assay [1] and in assay [2] was less than 5.46 nM throughout.

In the case of `C[C@@H]1CC/C=C\[C@@H]2C[C@@]2(C(=O)NS(=O)(=O)C2(C)CC2)NC(=O)[C@@H]2C[C@@H](Oc3nc(OCC(F)F)cc4c(Cl)cccc34)CN2C(=O)[C@@H](NC(=O)OC(C)(C)C(C)(F)F)[C@H](C)C1` [Compound 1110, 3,3-difluoro-2-methylbutan-2-yl((2R,6S,7R,9R,13aS,14aR,16aS,Z)-2-((5-chloro-3-(2,2-difluoroethoxyl)isoquinolin-1-yl)oxy)-7,9-dimethyl-14a-(((1-methylcyclopropyl)sulfonyl)carbamoyl)-5,16-dioxo-1,2,3,5,6,7,8,9,10,11,13a,14,14a,15,16,16a-hexadecahydrocyclopropa[e]pyrrolo[1,2-a][1,4]diazacyclopentadecin-6-yl)carbamate], the EC50 in assay [1] and in assay [2] was less than 5.46 nM throughout.

For `C[C@H]1CC/C=C\[C@@H]2C[C@@]2(C(=O)NS(=O)(=O)C2CC2)NC(=O)[C@@H]2C[C@@H](Oc3nc(OCC(F)F)cc4c(Cl)cccc34)CN2C(=O)[C@@H](NC(=O)OC(C)(C)C(C)(F)F)[C@H](C)C1` [Compound 1111, 3,3-difluoro-2-methylbutan-2-yl((2R,6S,7R,9S,13aS,14aR,16aS,Z)-2-((5-chloro-3-(2,2-difluoroethoxyl)isoquinolin-1-yl)oxy)-14a-((cyclopropylsulfonyl)carbamoyl)-7,9-dimethyl-5,16-dioxo-1,2,3,5,6,7,8,9,10,11,13a,14,14a,15,16,16a-hexadecahydrocyclopropa[e]pyrrolo[1,2-a][1,4]diazacyclopentadecin-6-yl)carbamate], the EC50 in assay [1] and in assay [2] was less than 5.46 nM throughout.

As for `C[C@@H]1CC/C=C\[C@@H]2C[C@@]2(C(=O)NS(=O)(=O)C2CC2)NC(=O)[C@@H]2C[C@@H](Oc3nc(OCC(F)F)cc4c(Cl)cccc34)CN2C(=O)[C@@H](NC(=O)OC(C)(C)C(C)(F)F)[C@H](C)C1` [Compound 1112, 3,3-difluoro-2-methylbutan-2-yl((2R,6S,7R,9R,13aS,14aR,16aS,Z)-2-((5-chloro-3-(2,2-difluoroethoxyl)isoquinolin-1-yl)oxy)-14a-((cyclopropylsulfonyl)carbamoyl)-7,9-dimethyl-5,16-dioxo-1,2,3,5,6,7,8,9,10,11,13a,14,14a,15,16,16a-hexadecahydrocyclopropa[e]pyrrolo[1,2-a][1,4]diazacyclopentadecin-6-yl)carbamate], the EC50 in assay [1] and in assay [2] was less than 5.46 nM each time.
